Results reported in ChEMBL document CHEMBL5303304, “EUbOPEN Chemogenomics Library - IncuCyte” (2023).

Key:
Assay type in all cases: toxicity, cell-based
HEK-293T = assay: Incucyte cell viability with HEK293T; conditions: human, 10 µM, compound concentration 10 uM
Fibroblast = assay: Incucyte cell viability with human fibroblast; conditions: 10 µM, compound concentration 10 uM
U2OS = assay: Incucyte cell viability with U2OS; conditions: human, 10 µM, compound concentration 10 uM
Further: unitless GR value; below 1 slowed growth and below 0 cell loss.

| SMILES | Growth Rate (HEK-293T; 0 h, replicate number 1) | Growth Rate (HEK-293T; 0 h, replicate number 2) | Growth Rate (HEK-293T; 12 h, replicate number 1) | Growth Rate (HEK-293T; 12 h, replicate number 2) | Growth Rate (HEK-293T; 18 h, replicate number 1) | Growth Rate (HEK-293T; 18 h, replicate number 2) | Growth Rate (HEK-293T; 24 h, replicate number 1) | Growth Rate (HEK-293T; 24 h, replicate number 2) | Growth Rate (Fibroblast; 0 h, replicate number 1) | Growth Rate (Fibroblast; 12 h, replicate number 2) | Growth Rate (Fibroblast; 18 h, replicate number 1) | Growth Rate (Fibroblast; 18 h, replicate number 2) | Growth Rate (Fibroblast; 24 h, replicate number 1) | Growth Rate (Fibroblast; 24 h, replicate number 2) | Growth Rate (U2OS; 12 h, replicate number 1) | Growth Rate (U2OS; 18 h, replicate number 1) | Growth Rate (U2OS; 18 h, replicate number 2) | Growth Rate (U2OS; 24 h, replicate number 2) | Growth Rate (U2OS; 0 h, replicate number 1) | Growth Rate (HEK-293T; 6 h, replicate number 2) | also measured |
| --- | --- | --- | --- | --- | --- | --- | --- | --- | --- | --- | --- | --- | --- | --- | --- | --- | --- | --- | --- | --- | --- |
| CNc1nc(-c2ccc3c(N)n[nH]c3c2)cc(N2C[C@@H](C(=O)NC3CCCCC3)CC[C@H]2C)n1 | -1 | -0.02 | 0.89 | 0.66 | 0.8 | 0.55 | 0.72 | 0.55 | -0.99 | 0.96 | 0.38 | 0.7 | 0.22 | 0.64 | 0.7 | 0.49 | 0.82 | 0.72 | – | – | Growth Rate (Fibroblast; 12 h, replicate number 1): 0.62; Growth Rate (U2OS; 12 h, replicate number 2): 0.8; Growth Rate (U2OS; 24 h, replicate number 1): 0.51 |
| CCn1c(-c2nonc2N)nc2cncc(C(=O)N3CC[C@H](N)C3)c21.Cl | -0.71 | -0.15 | – | – | – | – | – | – | -1 | – | – | – | – | – | – | – | 0.88 | 0.79 | -1 | – | Growth Rate (Fibroblast; 0 h, replicate number 2): -0.88 |
| CCc1nc(-c2cccc(C)c2)c(-c2ccncc2)s1 | -0.67 | – | – | – | 0.99 | – | – | – | -0.98 | – | – | – | – | – | – | – | – | – | – | 0.9 | Growth Rate (Fibroblast; 0 h, replicate number 2): 0.64; Growth Rate (Fibroblast; 6 h, replicate number 2): 1; Growth Rate (Fibroblast; 12 h, replicate number 1): 0.95; Growth Rate (U2OS; 0 h, replicate number 2): 0.65; Growth Rate (U2OS; 6 h, replicate number 2): 0.83 |
| Cc1cc(NC(=O)c2cccc(NC(=O)/C=C/CN(C)C)c2)ccc1Nc1nccc(-c2cccnc2)n1 | 0 | 0.65 | -0.26 | -0.35 | -0.23 | -0.32 | -0.19 | -0.26 | -1 | -0.15 | -0.24 | -0.3 | -0.22 | -0.29 | 0.69 | 0.46 | 0.93 | 0.51 | -1 | -0.41 | Growth Rate (HEK-293T; 6 h, replicate number 1): -0.35; Growth Rate (Fibroblast; 0 h, replicate number 2): 0.14; Growth Rate (Fibroblast; 6 h, replicate number 1): 0.07; Growth Rate (Fibroblast; 6 h, replicate number 2): 0.32; Growth Rate (Fibroblast; 12 h, replicate number 1): -0.2; Growth Rate (U2OS; 24 h, replicate number 1): 0.29 |
| OCC1OC(n2cnc3cc(Cl)c(Cl)cc32)C(O)C1O (stereo not drawn) | 0.64 | 0.84 | 0.43 | 0.83 | 0.48 | 0.74 | 0.55 | 0.82 | -0.9 | 0.42 | – | 0.86 | 0.84 | 0.78 | 0.53 | 0.33 | 0.94 | – | – | 0.29 | Growth Rate (HEK-293T; 6 h, replicate number 1): 0.33; Growth Rate (Fibroblast; 0 h, replicate number 2): -0.97; Growth Rate (Fibroblast; 6 h, replicate number 2): 0.4; Growth Rate (U2OS; 0 h, replicate number 2): 0.83; Growth Rate (U2OS; 6 h, replicate number 2): 0.95 |
| CNS(=O)(=O)c1ccc(N(C)C)c(Nc2ncnc3cc(OC)c(OC)cc23)c1 | -0.66 | 0.17 | – | 0.6 | 0.88 | 0.42 | 0.79 | 0.47 | -1 | 0.32 | 0.69 | 0.4 | 0.51 | 0.29 | 0.84 | 0.85 | 0.39 | 0.71 | -1 | 0.92 | Growth Rate (U2OS; 6 h, replicate number 2): 0.65; Growth Rate (U2OS; 12 h, replicate number 2): 0.6; Growth Rate (U2OS; 24 h, replicate number 1): 0.8 |
| Cc1n[nH]c2ncc(C(=O)N3CCC[C@H]3c3ccc(Cl)cc3)cc12 | 0.29 | – | – | 0.96 | – | 1 | 1 | 0.89 | – | 0.76 | 0.66 | 0.99 | 0.73 | 0.92 | 0.67 | 0.94 | – | – | – | 0.58 | Growth Rate (Fibroblast; 6 h, replicate number 1): 0.75; Growth Rate (U2OS; 6 h, replicate number 1): 0.34; Growth Rate (U2OS; 24 h, replicate number 1): 0.91 |
| Fc1cccc(-n2cnc3c(NCc4nc5ccc(F)c(F)c5[nH]4)nc(N4CCOCC4)nc32)c1 | -0.62 | – | -0.36 | – | -0.28 | -0.31 | -0.21 | -0.25 | – | -0.11 | 0.04 | -0.03 | -0.01 | 0.03 | 0.06 | -0.23 | 0.61 | 0.38 | – | -0.21 | Growth Rate (HEK-293T; 6 h, replicate number 1): -0.14; Growth Rate (Fibroblast; 6 h, replicate number 1): -0.08; Growth Rate (Fibroblast; 6 h, replicate number 2): -0.22; Growth Rate (Fibroblast; 12 h, replicate number 1): 0.02; Growth Rate (U2OS; 6 h, replicate number 1): 0.56; Growth Rate (U2OS; 24 h, replicate number 1): -0.23 |
| Fc1ccc(-c2nc(-c3c(F)cccc3F)[nH]c2-c2ccncc2)cc1 | -0.47 | 0.65 | – | 0.5 | – | 0.62 | – | 0.68 | -0.99 | – | – | – | – | – | – | – | 0.97 | 0.76 | -1 | 0.27 | Growth Rate (Fibroblast; 0 h, replicate number 2): 0.29 |
| CNC(=O)c1c(F)cccc1Nc1nc(Nc2cc3c(cc2OC)CCN3C(=O)CN(C)C)nc2[nH]ccc12 | -1 | 0.35 | – | 0.75 | – | -0.03 | – | -0.14 | -0.92 | -0.65 | -0.23 | -0.62 | -0.23 | -0.6 | 0.02 | -0.42 | -0.11 | -0.14 | -0.99 | – | Growth Rate (Fibroblast; 6 h, replicate number 1): 0.23; Growth Rate (Fibroblast; 6 h, replicate number 2): -0.71; Growth Rate (Fibroblast; 12 h, replicate number 1): 0.04; Growth Rate (U2OS; 0 h, replicate number 2): -1; Growth Rate (U2OS; 12 h, replicate number 2): 0.29; Growth Rate (U2OS; 24 h, replicate number 1): -0.45 |
| CN1Cc2nccc(-c3cn(C)nc3-c3ccc(F)cc3)c2C1=O.Cl | -0.38 | 0.69 | – | – | – | – | – | – | – | – | – | – | – | – | – | 0.99 | – | – | 0.53 | – | Growth Rate (Fibroblast; 0 h, replicate number 2): 0.28; Growth Rate (U2OS; 0 h, replicate number 2): 0.96 |
| O=C(Nc1snnc1C(=O)Nc1ccc(N2CCCC2)cc1)c1cncc(C(F)(F)F)c1 | 0.43 | 0.78 | 0.99 | 0.8 | 0.92 | 0.86 | 0.91 | 0.9 | -1 | 0.11 | – | 0.43 | 0.96 | 0.59 | -0.58 | – | – | – | -1 | 0.54 | Growth Rate (Fibroblast; 0 h, replicate number 2): -0.64; Growth Rate (Fibroblast; 6 h, replicate number 2): 0.26; Growth Rate (U2OS; 6 h, replicate number 2): 0.89; Growth Rate (U2OS; 12 h, replicate number 2): 0.81 |
| CC(=O)c1c(C)c2cnc(Nc3ccn(C)n3)nc2n(C2CCCC2)c1=O | 0.51 | – | 0.97 | 0.81 | 0.9 | 0.79 | 0.79 | 0.83 | – | – | 0.8 | – | – | – | 0.06 | – | 0.92 | – | – | 0.76 | Growth Rate (HEK-293T; 6 h, replicate number 1): 0.81; Growth Rate (Fibroblast; 6 h, replicate number 2): 0.93; Growth Rate (U2OS; 6 h, replicate number 1): 0.67; Growth Rate (U2OS; 6 h, replicate number 2): 0.96; Growth Rate (U2OS; 12 h, replicate number 2): 0.99 |
| COCCNC1CCC(Nc2cc(-c3csc(NCC4(C#N)CCOCC4)n3)c(Cl)cn2)CC1 (stereo not drawn) | -0.55 | 0.97 | -0.33 | -0.48 | -0.33 | -0.43 | -0.24 | -0.35 | -1 | 0.24 | 0.16 | -0.14 | 0.14 | -0.16 | – | -0.21 | 0.04 | -0.03 | -1 | -0.42 | Growth Rate (HEK-293T; 6 h, replicate number 1): -0.19; Growth Rate (Fibroblast; 6 h, replicate number 1): 0.99; Growth Rate (Fibroblast; 12 h, replicate number 1): 0.4; Growth Rate (U2OS; 6 h, replicate number 2): 0.51; Growth Rate (U2OS; 12 h, replicate number 2): 0.08 |
| O=C1Nc2ccc(I)cc2/C1=C/c1cc(Br)c(O)c(Br)c1 | -0.98 | 0.38 | – | 0.98 | – | 0.88 | – | 0.86 | -1 | – | – | – | – | – | – | – | – | – | -0.98 | 0.9 | Growth Rate (U2OS; 0 h, replicate number 2): 0.76 |
